Literature values in US11839666B2, “Oral care article comprising a hydrophobic delivery carrier and solid hydrophilic particles comprising an agent” (The Procter & Gamble Company, priority 2020, dated 2023).
Where two headings read alike, the source gives them in different places.

Conditions: at 20 C

## NC(N)=O.OO [Urea Hydrogen Peroxide Adduct]
Per Safety Data Sheet from supplier
  Solubility in water: 800 grams per liter
Restated from Safety Data Sheet value
  Solubility in water: 80 parts per 100 parts of water
